Measured values: patent US20240408064A1, “RAS INHIBITORS, COMPOSITIONS AND METHODS OF USE THEREOF” (GENETOLEAD INC., priority 2021, published 2024)
Entries after “also recorded” stand apart in the source; their conditions may differ.

Tests used:
HRas^G12V [1] = molecular target: T1, HRas^G12V (Homo sapiens (Human), UniProt P01112, G12V); assay: 19F DLB (ligand-observed 19F NMR) score; type: binding; set-up: scale not given here
Method in brief: (§1)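 In the T2-CPMG experiment, echo spacing was 1 ms and total delays ranged over eight values from 1 to 800 ms. Both scores come from 600 MHz NMR of 50 μM HRas G12V mixed with fragment pools at 240 μM each, in phosphate buffer pH 7.4 with NaCl, MgCl2 and TCEP-d16. Ligand-observed 19F spectra were recorded with 1H decoupling, 64 scans and a 5 s relaxation delay.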

HRas^G12V [2] = molecular target: T1, HRas^G12V; assay: 19F T2-CPMG NMR score; type: binding
Method in brief: as §1

HRas^G12V [3] = molecular target: T1, HRas^G12V; assay: Overall binding/activity in the various assays (NMR consensus binding)
Method in brief: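 Fragments (240 µM each, pooled) screened against 50 µM HRas^G12V in 25 mM sodium phosphate pH 7.4, 150 mM NaCl, 5 mM MgCl2, 1 mM TCEP-d16 by 1H-decoupled 1D 19F NMR. Hits confirmed by ligand- and protein-observed 1D 1H, STD and T2-CPMG (aggregation check); consensus binding ranked, with 15N HSQC for sites and Kd.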

Row | SMILES | 19F DLB Score (HRas^G12V [1]) | 19F T2-CPMG Score (HRas^G12V [2]) | Binding to HRas^G12V (in words) (HRas^G12V [3]) | Activity ranking on HRas^G12V (in words) (HRas^G12V [3])
1 | CN1CCC(NC(=O)Cc2c[nH]c3cc(F)ccc23)C(C(=O)O)C1 (stereo not drawn) [Compound 10118, 4-(2-(6-fluoro-1H-indol-3-yl)acetamido)-1-methylpiperidine-3-carboxylic acid] | 1.15 | 2.67 | low or no binding | –
2 | CCOC(=O)[C@@H]1COCCN1C(=O)Cc1c[nH]c2cc(F)ccc12 [Compound 10140, ethyl (S)-4-(2-(6-fluoro-1H-indol-3-yl)acetyl) morpholine-3-carboxylate] | 1.49 | 5.98 | low or no binding | –
3 | CC(=O)N[C@@H]1CCCN(C(=O)Cc2c[nH]c3cc(F)ccc23)C1 [compound 10137] | 2.02 | 6.16 | low or no binding | –
4 | CC1(C)OC(=O)C(C(c2ccccc2F)c2c[nH]c3cc(F)ccc23)C(=O)O1 (stereo not drawn) [Compound 11042] | 1.56 | 5.62 | low or no binding | –
5 | CN(C)CC(=O)Nc1ccc(NC(=O)Cc2c[nH]c3cc(F)ccc23)cc1 [Compound 11008] | 6.41 | 38.4 | – | More active; also recorded: Most active
6 | COCC(=O)Nc1cccc(NC(=O)Cc2c[nH]c3cc(F)ccc23)c1 [Compound 10080, 2-(6-fluoro-1H-indol-3-yl)-N-(3-(2-methoxyacetamido)phenyl)acetamide] | 2.67 | −1.66 | low or no binding | –
7 | O=C1CC(c2c[nH]c3cc(F)ccc23)C(=O)N1 (stereo not drawn) [Compound 11006] | 3.43 | 24.24 | – | More active; also recorded: Most active
8 | Fc1ccc2c(CCNCCc3c[nH]c4cc(F)ccc34)c[nH]c2c1 [Compound 10047, Bis(2-(6-fluoro-1H-indol-3-yl)ethyl)amine] | 1.19 | 3.38 | low or no binding | –
9 | CCOC(=O)[C@@H]1CN(C(=O)Cc2c[nH]c3cc(F)ccc23)CCO1 [Compound 10168] | 1.43 | 4.84 | low or no binding | –
10 | CCOC(=O)C(Cc1ccccc1)NC(=O)Cc1c[nH]c2cc(F)ccc12 (stereo not drawn) [Compound 10096] | 1.14 | 2.11 | low or no binding | –
11 | CC(=O)NC[C@H]1CN(C(=O)Cc2c[nH]c3cc(F)ccc23)CCO1 [Compound 10162, (S)—N-((4-(2-(6-fluoro-1H-indol-3-yl)acetyl)morpholin-2-yl)methyl) acetamide] | 1.65 | 5.5 | low or no binding | –
12 | COC(=O)[C@@H]1CN(C(=O)Cc2c[nH]c3cc(F)ccc23)CCN1C [Compound 10163] | 1.61 | 7.3 | low or no binding | –
13 | COC(=O)C1CN(C(C)C)CCC1NC(=O)Cc1c[nH]c2cc(F)ccc12 (stereo not drawn) [Compound 10141, methyl 4-(2-(6-fluoro-1H-indol-3-yl)acetamido)-1-isopropylpiperidine-3-carboxylate] | 1.21 | 3.15 | low or no binding | –
14 | CCOC(=O)C[C@@H]1CN(C(=O)Cc2c[nH]c3cc(F)ccc23)CCO1 [Compound 10171] | 1.19 | 7.62 | low or no binding | –
15 | CN(C)CC(=O)Nc1cccc(NC(=O)Cc2c[nH]c3cc(Cl)cc(F)c23)c1 [Compound 11072] | 0.08 | 1.02 | low or no binding | –
16 | CCOC(=O)[C@@H](C)NC(=O)Cc1c[nH]c2cc(F)ccc12 [Compound 10037] | 1.25 | 4.07 | low or no binding | –
17 | CN1CCC[C@@H]1C(=O)NCCc1c[nH]c2cc(F)ccc12 [Compound 10028] | 1.01 | 1.61 | low or no binding | –
18 | CN(C)CC(=O)Nc1cccc(NC(=O)Cc2c[nH]c3cc(F)cc(Cl)c23)c1 [Compound 11073] | <LLOQ | <LLOQ | – | More active; also recorded: Most active
19 | O=C(O)C[C@@H]1CN(C(=O)Cc2c[nH]c3cc(F)ccc23)CCO1 [Compound 10175] | 1.19 | 2.15 | low or no binding | –
20 | O=C(O)[C@H]1CN(C(=O)Cc2c[nH]c3cc(F)ccc23)CCO1 [Compound 10153] | 1.39 | 3.22 | low or no binding | –
21 | CCOC(=O)[C@H]1CN(C(=O)Cc2c[nH]c3cc(F)ccc23)CCO1 [Compound 10169] | 1.6 | 7.14 | low or no binding | –
22 | CCOC(=O)C(CO)NC(=O)Cc1c[nH]c2cc(F)ccc12 (stereo not drawn) [Compound 10105] | 1.2 | 2.44 | low or no binding | –
23 | COC(=O)C1CN(C)CCC1NC(=O)Cc1c[nH]c2cc(F)ccc12 (stereo not drawn) [Compound 10142, Methyl 4-(2-(6-fluoro-1H-indol-3-yl)acetamido)-1-methylpiperidine-3-carboxylate] | 1.11 | 2.43 | low or no binding | –
24 | CC(=O)N1CC[C@@H](NC(=O)Cc2c[nH]c3cc(F)ccc23)C1 [Compound 10092, (R)—N-(1-acetylpyrrolidin-3-yl)-2-(6-fluoro-1H-indol-3-yl) acetamide] | 1.46 | 7.82 | low or no binding | –
25 | COC[C@@H]1CN(C(=O)Cc2c[nH]c3cc(F)ccc23)CCO1 [compound 10155] | 1.49 | 8.16 | low or no binding | –
